# Data as given in PubChem BioAssay (NCI).
#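 Test compounds were applied to cells in 96-well plates for 48 hours at 5 doses. GI50 is the concentration that inhibits growth by half. TGI: concentration producing complete growth inhibition.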
# Legend:
# Experiment in all cases: inhibition of tumour cell growth, NCI panel, 48 h
# OVCAR-5 ovarian = tested on: OVCAR-5 ovarian
# SK-MEL-28 melanoma = tested on: SK-MEL-28 melanoma
# LOX IMVI melanoma = tested on: LOX IMVI melanoma
# SF-295 CNS = tested on: SF-295 CNS
# UO-31 renal = tested on: UO-31 renal
# UACC-257 melanoma = tested on: UACC-257 melanoma
# K-562 leukemia = tested on: K-562 leukemia
# SK-MEL-5 melanoma = tested on: SK-MEL-5 melanoma
# HL-60(TB) leukemia = tested on: HL-60(TB) leukemia
# HCC-2998 colon = tested on: HCC-2998 colon
# SNB-19 CNS = tested on: SNB-19 CNS
# PC-3 prostate = tested on: PC-3 prostate
# TK-10 renal = tested on: TK-10 renal
# UACC-62 melanoma = tested on: UACC-62 melanoma
# SW-620 colon = tested on: SW-620 colon
# NCI-H522 lung = tested on: NCI-H522 lung
# EKVX NSCLC = tested on: EKVX NSCLC
# HT29 colon = tested on: HT29 colon
# NCI-H460 lung = tested on: NCI-H460 lung
# RXF 393 renal = tested on: RXF 393 renal
# BT-549 breast = tested on: BT-549 breast
# HS 578T breast = tested on: HS 578T breast
# MCF7 breast = tested on: MCF7 breast
# NCI-H226 lung = tested on: NCI-H226 lung
# SNB-75 CNS = tested on: SNB-75 CNS
# A498 renal = tested on: A498 renal
# OVCAR-4 ovarian = tested on: OVCAR-4 ovarian
# HOP-92 NSCLC = tested on: HOP-92 NSCLC
# ACHN renal = tested on: ACHN renal
# MDA-MB-231 breast = tested on: MDA-MB-231 breast
# HOP-62 NSCLC = tested on: HOP-62 NSCLC
# U251 CNS = tested on: U251 CNS
# SR leukemia = tested on: SR leukemia
# OVCAR-8 ovarian = tested on: OVCAR-8 ovarian
# MOLT-4 leukemia = tested on: MOLT-4 leukemia
# CCRF-CEM leukemia = tested on: CCRF-CEM leukemia
# DU-145 prostate = tested on: DU-145 prostate
# KM12 colon = tested on: KM12 colon
# SF-268 CNS = tested on: SF-268 CNS
# OVCAR-3 ovarian = tested on: OVCAR-3 ovarian
# NCI-H23 lung = tested on: NCI-H23 lung
# CAKI-1 renal = tested on: CAKI-1 renal
# MALME-3M melanoma = tested on: MALME-3M melanoma
# 786-0 renal = tested on: 786-0 renal
# M14 melanoma = tested on: M14 melanoma
# SK-OV-3 ovarian = tested on: SK-OV-3 ovarian
# MDA-MB-435 = tested on: MDA-MB-435
# IGROV1 ovarian = tested on: IGROV1 ovarian
# T-47D breast = tested on: T-47D breast
# SF-539 CNS = tested on: SF-539 CNS
# SK-MEL-2 melanoma = tested on: SK-MEL-2 melanoma
# RPMI-8226 leukemia = tested on: RPMI-8226 leukemia
# SN12C renal = tested on: SN12C renal
# A549 NSCLC = tested on: A549 NSCLC
# HCT-15 colon = tested on: HCT-15 colon
# COLO 205 colon = tested on: COLO 205 colon
# HCT-116 colon = tested on: HCT-116 colon
# NCI/ADR-RES ovarian = tested on: NCI/ADR-RES ovarian
smiles,measurement,setting,value
CN(CCCN(C)CCC1CCCCC1)CCC1CCCCC1,GI50,OVCAR-5 ovarian,2.98 µM
same,TGI,OVCAR-5 ovarian,10.7 µM
same,GI50,SK-MEL-28 melanoma,1.91 µM
same,TGI,SK-MEL-28 melanoma,3.41 µM
same,GI50,LOX IMVI melanoma,1.61 µM
same,TGI,LOX IMVI melanoma,3.55 µM
same,GI50,SF-295 CNS,1.46 µM
same,TGI,SF-295 CNS,3.02 µM
same,GI50,UO-31 renal,1.58 µM
same,TGI,UO-31 renal,14.4 µM
same,GI50,UACC-257 melanoma,0.291 µM
same,TGI,UACC-257 melanoma,0.876 µM
same,GI50,K-562 leukemia,1.97 µM
same,TGI,K-562 leukemia,7.02 µM
same,GI50,SK-MEL-5 melanoma,1.32 µM
same,TGI,SK-MEL-5 melanoma,2.61 µM
same,GI50,HL-60(TB) leukemia,0.319 µM
same,TGI,HL-60(TB) leukemia,8.61 µM
same,GI50,HCC-2998 colon,1.6 µM
same,TGI,HCC-2998 colon,3.23 µM
same,GI50,SNB-19 CNS,3.76 µM
same,TGI,SNB-19 CNS,9.98 µM
same,GI50,PC-3 prostate,2.62 µM
same,TGI,PC-3 prostate,15.4 µM
same,GI50,TK-10 renal,1.62 µM
same,TGI,TK-10 renal,3.55 µM
same,GI50,UACC-62 melanoma,0.888 µM
same,TGI,UACC-62 melanoma,2.39 µM
same,GI50,SW-620 colon,2.28 µM
same,TGI,SW-620 colon,6.84 µM
same,GI50,NCI-H522 lung,1.77 µM
same,TGI,NCI-H522 lung,4.36 µM
same,GI50,EKVX NSCLC,2.24 µM
same,TGI,EKVX NSCLC,11.1 µM
same,GI50,HT29 colon,0.475 µM
same,TGI,HT29 colon,2.37 µM
same,GI50,NCI-H460 lung,2.65 µM
same,TGI,NCI-H460 lung,6.7 µM
same,GI50,RXF 393 renal,0.946 µM
same,TGI,RXF 393 renal,3.54 µM
same,GI50,BT-549 breast,2.64 µM
same,TGI,BT-549 breast,11.1 µM
same,GI50,HS 578T breast,2.26 µM
same,TGI,HS 578T breast,6.68 µM
same,GI50,MCF7 breast,1.62 µM
same,TGI,MCF7 breast,3.28 µM
same,GI50,NCI-H226 lung,2.57 µM
same,TGI,NCI-H226 lung,11.9 µM
same,GI50,SNB-75 CNS,2.04 µM
same,TGI,SNB-75 CNS,6.39 µM
same,GI50,A498 renal,5.14 µM
same,TGI,A498 renal,13.8 µM
same,GI50,OVCAR-4 ovarian,3.35 µM
same,TGI,OVCAR-4 ovarian,14.6 µM
same,GI50,HOP-92 NSCLC,0.687 µM
same,TGI,HOP-92 NSCLC,5.72 µM
same,GI50,ACHN renal,4 µM
same,TGI,ACHN renal,14.9 µM
same,GI50,MDA-MB-231 breast,1.38 µM
same,TGI,MDA-MB-231 breast,4.68 µM
same,GI50,HOP-62 NSCLC,5.3 µM
same,TGI,HOP-62 NSCLC,17.7 µM
same,GI50,U251 CNS,1.97 µM
same,TGI,U251 CNS,7.48 µM
same,GI50,SR leukemia,1.19 µM
same,TGI,SR leukemia,4.21 µM
same,GI50,OVCAR-8 ovarian,4.85 µM
same,TGI,OVCAR-8 ovarian,18.4 µM
same,GI50,MOLT-4 leukemia,2.4 µM
same,TGI,MOLT-4 leukemia,7.3 µM
same,GI50,CCRF-CEM leukemia,3.03 µM
same,TGI,CCRF-CEM leukemia,21.7 µM
same,GI50,DU-145 prostate,8.51 µM
same,TGI,DU-145 prostate,20.8 µM
same,GI50,KM12 colon,2.04 µM
same,TGI,KM12 colon,4.12 µM
same,GI50,SF-268 CNS,5.14 µM
same,TGI,SF-268 CNS,18.9 µM
same,GI50,OVCAR-3 ovarian,3.95 µM
same,TGI,OVCAR-3 ovarian,15 µM
same,GI50,NCI-H23 lung,8.7 µM
same,TGI,NCI-H23 lung,22.1 µM
same,GI50,CAKI-1 renal,1.52 µM
same,TGI,CAKI-1 renal,3.82 µM
same,GI50,MALME-3M melanoma,1.39 µM
same,TGI,MALME-3M melanoma,3.03 µM
same,GI50,786-0 renal,3.46 µM
same,TGI,786-0 renal,13.7 µM
same,GI50,M14 melanoma,1.27 µM
same,TGI,M14 melanoma,2.59 µM
same,GI50,SK-OV-3 ovarian,5.34 µM
same,TGI,SK-OV-3 ovarian,17.1 µM
same,GI50,MDA-MB-435,0.755 µM
same,TGI,MDA-MB-435,2.27 µM
same,GI50,IGROV1 ovarian,1.09 µM
same,TGI,IGROV1 ovarian,5.54 µM
same,GI50,T-47D breast,1.64 µM
same,TGI,T-47D breast,4.15 µM
same,GI50,SF-539 CNS,1.7 µM
same,TGI,SF-539 CNS,3.53 µM
same,GI50,SK-MEL-2 melanoma,2.19 µM
same,TGI,SK-MEL-2 melanoma,4.84 µM
same,GI50,RPMI-8226 leukemia,1.47 µM
same,TGI,RPMI-8226 leukemia,5.09 µM
same,GI50,SN12C renal,6.49 µM
same,TGI,SN12C renal,20.6 µM
same,GI50,A549 NSCLC,9.8 µM
same,TGI,A549 NSCLC,24.1 µM
same,GI50,HCT-15 colon,2.02 µM
same,TGI,HCT-15 colon,8.21 µM
same,GI50,COLO 205 colon,1.77 µM
same,TGI,COLO 205 colon,3.27 µM
same,GI50,HCT-116 colon,2.52 µM
same,TGI,HCT-116 colon,7.45 µM
same,GI50,NCI/ADR-RES ovarian,6.6 µM
same,TGI,NCI/ADR-RES ovarian,20.1 µM
